The term TGI denotes the reduction of tumour growth relative to the control group. One may read the AUC as the area under the concentration-time curve, a measure of exposure. For orientation: Vss means the apparent volume that relates the amount in the body to the concentration in plasma or blood.

Data set [1] relates to PC-3. The data set can be described thus: apoptosis, cytoplasmic DNA-histone complexes, PC-3. It counts as cell-based, human. Conditions: 0.8 to 600 nmol/L, 24 h.
A further data set relates to PC-3/TxR tumors. As to conditions: for Tumor size End: mouse, in vivo, po.
In the next data set the test system is C26 xenografts. The data set is described as follows: C26 xenograft in nude mice. As to conditions: C26 colon xenograft, IV 10 mg/kg 1/wk.
A further data set deals with A549 xenografts. The data set is described as follows: A549 xenograft in nude mice. Conditions: A549 lung xenograft, IV 10 mg/kg 1/wk.
The next data set deals with OVCAR8 xenografts. The data set can be described thus: OVCAR8 xenograft in nude mice. Conditions: OVCAR8 ovary xenograft, IV 10 mg/kg 1/wk.
For another data set, the system named is MES-SA/DX5 xenografts. The data set can be described thus: MES-SA/DX5 xenograft in nude mice. Conditions: MES-SA/DX5 uterine (MDR) xenograft, IV 10 mg/kg 1/wk.
For a further data set, the system named is A549. The data set can be described thus: SRB antiproliferation assay, A549 lung cancer. Conditions: Homo sapiens, A549, 96 h, read-out: IC50 in the SRB, A549.
Another data set concerns C26. The data set can be described thus: SRB antiproliferation assay, C26 colon cancer. As to conditions: C26, 96 h, read-out: IC50 in the SRB, C26.
The next data set has as its system MCF7. The data set can be described thus: SRB antiproliferation assay, MCF7 breast cancer. As to conditions: Homo sapiens, MCF7, 96 h, read-out: IC50 in the SRB, MCF7. (In SRB staining, fixed cells bind dye roughly in proportion to their protein.)
In data set [2] the test system is PC-3. The data set is described as follows: SRB antiproliferation assay, PC-3 prostate cancer.
In another data set the test system is MES-SA. The data set can be described thus: SRB antiproliferation assay, MES-SA uterine cancer. As to conditions: Homo sapiens, 96 h, read-out: IC50 in the SRB, MES-SA.
The test system of the next data set is OVCAR-8. The data set is described as follows: SRB antiproliferation assay, OVCAR-8 ovarian cancer. As to conditions: Homo sapiens, OVCAR-8, 96 h, read-out: IC50 in the SRB, OVCAR8.
For another data set, the system named is MES-SA/DX5. The data set can be described thus: SRB antiproliferation assay, doxorubicin-resistant MES-SA/DX5. As to conditions: read-out: IC50 in the SRB, MES-SA/DX5, uterine MDR, 96 h, N = 3.
In another data set the test system is HUVEC. The data set can be described thus: endothelial cell growth inhibition SRB, HUVEC. It counts as cell-based, human. As to conditions: for Selectivity ratio, cancer cells/HUVEC: mean IC50 in PC3 and T47D over IC50 in HUVEC.
Data set [3] concerns HUVEC capillary tube formation. The data set is described as follows: capillary formation assay on Matrigel. Conditions: at toxic concentration. It counts as cell-based, human.
The test system of data set [4] is confluent HUVEC monolayers. The data set can be described thus: endothelial monolayer permeability assay. It counts as cell-based, human. Conditions: leakage of FITC-dextran (MW 40,000) after 1, 2 and 4 h. The text has this:
Endothelial monolayer permeability assay.

Data set [5] concerns prostate cancer cells (LNCaP, PC-3, DU-145, PPC-1). The data set is described as follows: SRB assay, prostate cancer cells. It counts as cell-based, human. As to conditions: Homo sapiens, range over prostate cancer cell lines; read-out: IC50 values against prostate cancer cells.
The target of another data set is T1, Porcine brain tubulin (Sus scrofa, UniProt P02550+P02554).
T1 construct: […]; purchased Cytoskeleton, Denver, Colo; host or cells: porcine brain
It counts as biochemical. As to conditions: 5 μM, at 15 min.

Data set [6] relates to colchicine-binding site on tubulin. The data set is described as follows: competitive mass binding assay, colchicine-tubulin binding. As to conditions: tubulin 1 mg/mL.
The test system of the next data set is PC-3/TxR. The data set is described as follows: apoptosis, cytoplasmic DNA-histone complexes, PC-3/TxR. It counts as cell-based, human. As to conditions: 0.8 to 600 nmol/L, 24 h.
Another data set deals with PC3. The data set can be described thus: cell growth inhibition SRB, PC3 (vascular study). It counts as cell-based. As to conditions: Homo sapiens, PC-3, N = 3, Table 14. The text has this: (§1) Cell growth inhibition studies. […] Cells were stained with sulphorhodamine B (SRB) solution.
The next data set concerns T47D. The data set is described as follows: cell growth inhibition SRB, T47D. It counts as cell-based. As to conditions: Homo sapiens, N = 3, Table 14.
From the text: as §1

The next data set has as its system CaCO-2. The data set is described as follows: permeability, CaCO-2 assay. Conditions: mean of duplicate studies.
Data set [7] can be described thus: pharmacokinetic study in ICR mice. Conditions: mouse, PO 20 mg/kg vs IV 10 mg/kg.
A short description of data set [8]: pharmacokinetic study in beagle dogs. As to conditions: dog, PO 5 mg/kg vs IV 2 mg/kg.
Data set [9] is described as follows: pharmacokinetic study in Sprague-Dawley rats. As to conditions: rat.
A further data set concerns LNCaP. The data set is described as follows: SRB antiproliferation assay, LNCaP prostate cancer. Conditions: read-out: Cytotoxicity IC50 mean ± SD, LNCaP; 96 h treatment, N = 3.
A further data set relates to PPC-1. The data set is described as follows: SRB antiproliferation assay, PPC-1 prostate cancer. Conditions: read-out: Cytotoxicity IC50 mean ± SD, PPC-1; 96 h treatment, N = 3.
The subject of a further data set is DU 145. The data set can be described thus: SRB antiproliferation assay, DU 145 prostate cancer. Conditions: read-out: Cytotoxicity IC50 mean ± SD, Du-145; 96 h treatment, N = 3.

Molecules are shown by their SMILES. Like-named read-outs stand apart in the source and are kept apart here. A value given as a limit tells only on which side of the number the result lay.

With `CC(=O)O[C@@]12CO[C@@H]1C[C@H](O)[C@@]1(C)C(=O)[C@H](O)C3=C(C)[C@@H](OC(=O)[C@H](O)[C@@H](NC(=O)OC(C)(C)C)c4ccccc4)C[C@@](O)([C@@H](OC(=O)c4ccccc4)[C@H]21)C3(C)C` [Docetaxel, reference compound], the “induction of cell apoptosis in PC-3” value in the data set with PC-3 [1] is reported as “highly potent”. The TGI with PC-3/TxR tumors (PC3/TXR prostate (MDR) xenograft, IV 10 mg/kg 1/wk) is listed as 14%; with PC-3/TxR tumors (PC-3/TxR xenograft, IV 10 mpk day 1 and 9, day 19), 14%; with PC-3/TxR tumors (PC-3/TxR xenograft, IV 20 mpk day 1 and 9, day 19), 56%; in the data set on C26 xenografts it was 35%; with A549 xenografts, 44%; in the data set with OVCAR8 xenografts it was 22%. The TGI in the data set on MES-SA/DX5 xenografts was determined as 47%. In addition, the IC50 with A549 was 0.2 nM; in the data set on C26, 4 nM; in the data set with MCF7 it was 0.1 nM; in the data set with PC-3 [2] (read-out: Cytotoxicity IC50 mean ± SD, PC-3, 96 h treatment, N = 3), 1.2 ± 0.1 nM; in the data set with PC-3 [2] (read-out: IC50 in the SRB, PC3, 96 h treatment, N = 3, Table 15), 1 to 5 nM; with MES-SA it was 0.1 nM. Besides, the IC50 came out at 0.4 nM in the data set on OVCAR-8, 26 nM with MES-SA/DX5 and 426 nM in the data set on MES-SA/DX5 (listed as DTX).
Take `COc1cccc2c1C(=O)c1c(O)c3c(c(O)c1C2=O)C[C@@](O)(C(=O)CO)C[C@@H]3O[C@H]1C[C@H](N)[C@H](O)[C@H](C)O1` [Doxorubicin]: the “Selectivity ratio, cancer cells/HUVEC” value with HUVEC is listed as 1.4; in the data set with HUVEC (listed as doxorubicin), “not specific to endothelial cells”. For the same molecule, the capillary construction entry in data set [3] is “did not affect”. For the same molecule, in data set [4], the “permeability of endothelial cell monolayer” value was “did not induce any change”.
Regarding `COc1cc(C(=O)c2csc(Nc3ccc4[nH]ccc4c3)n2)cc(OC)c1OC` [compound 55, (2-(1H-indol-5-ylamino)thiazol-4-yl)(3,4,5-trimethoxyphenyl)methanone], the IC50 in [5] is 7.5 to 24.1 nM; in the data set with PC3, 23.3 nM; with T47D, 37.4 nM; in the data set on HUVEC (Homo sapiens, HUVEC, SRB, N = 3, growth factor-supplemented endothelial cells) it was 9.7 nM; in the data set with PC-3 [2] (human, PC-3 cells, 96 h), 16.5 ± 1.5 nM; in the data set with LNCaP, 27 ± 0.6 nM. For the same molecule, the IC50 with PPC-1 is 36 ± 0.4 nM; with DU 145, 38 ± 0.6 nM. The “inhibition of tubulin polymerization” value against Porcine brain tubulin turned out to be 40%. Moreover, the “competition with colchicine for tubulin binding” value in data set [6] is recorded as “competed effectively with colchicine for tubulin binding”. Also, in the data set with PC-3 [1], the “induction of cell apoptosis in PC-3” value is “equally potent”. The “induction of cell apoptosis in PC-3/TxR” value with PC-3/TxR was “equally potent”. Further, the “permeability of endothelial cell monolayer” value in data set [4] is “increased permeability”. Further, the “Body weight End” value with PC-3/TxR tumors (PC-3/TxR xenograft, PO 10 mpk b.i.d × 5/w, day 26, start 29 ± 2) was 26 ± 3 g; in the data set on PC-3/TxR tumors (PC-3/TxR xenograft, PO 30 mpk b.i.d × 5/w, day 26, start 29 ± 3), 30 ± 2 g. Moreover, the TGI in the data set with PC-3/TxR tumors (PC-3/TxR xenograft, PO 30 mpk b.i.d × 5/w, day 26, 30 mg/kg) was more than 100%. Moreover, the “Tumor size End” value with PC-3/TxR tumors (10 mg/kg) amounted to 1152 ± 433 mm^3; with PC-3/TxR tumors (30 mg/kg), 101 ± 19 mm^3. The “Permeability Papp(A→B) in CaCO-2 assay” value with CaCO-2 is reported as 99 10^−6 cm/s. The F in [7] was 34%; in data set [8], 36%; in data set [9] (PO 10 mg/kg vs IV 5 mg/kg), 24%. Further, the AUC stood at 509 ± 73 µg·min/mL in data set [9] (IV 5 mg/kg) and 246 ± 163 µg·min/mL in [9] (PO 10 mg/kg). Moreover, in data set [9] (IV 5 mg/kg), the Vss is reported as 1.0 ± 0.1 L/kg.
